How the values were obtained:
[1] = target: T1, mutant ALS protein of Sr line (Oryza sativa subsp. japonica, UniProt Q6K2E8); experiment: Herbicide sensitivity of partially purified ALS protein (ALS activity inhibition), Sr line; type: biochemical, Oryza sativa var. Kinmaze; conditions: read-out: I50 (nM) Sr; partially purified ALS, 30° C., probit analysis
T1 construct: other: partially purified ALS, 30° C., probit analysis
Description: (§1) First, 200 g or more of resistant mutant was prepared by a liquid culture method (no supplementation with bispyribac-sodium), using a composition as shown in Table 3 excluding Gelrite. Then, about 150 g of the resistant mutant was homogenized using Hiscotron in a volume of buffer-1 [100 mM potassium phosphate buffer (pH 7.5) containing 20% (v/v) glycerol, […] thiamin pyrophosphate (TPP), 10 μM flavin adenine dinucleotide (FAD), 0.5 mM MgCl2, and a volume of polyvinyl polypyrrolidone one-tenth that of tissue volume] 3-fold greater than tissue volume. The homogenate was filtered through nylon gauze, and then centrifuged at 15000×g for 20 minutes. Ammonium sulfate was added to the centrifuged supernatant to 50% saturation, and then allowed to stand in ice for approximately 1 hour. The mixture was again centrifuged at 15000×g for 20 minutes, and then the precipitated fraction was dissolved in approximately 30 ml of buffer-2 [10 mM Tris hydrochloric acid buffer (pH 7.5) containing 20% (v/v) glycerol, 0.5 mM TPP and 0.5 mM MgCl2]. The mixture was again centrifuged at 15000×g for 20 minutes, and then the supernatant fraction was applied to a Sephadex G-25 (Amersham Bioscience). About 40 ml of the fraction that had passed through the column was collected as a crude enzyme solution.
(§2) Next, the protein concentration of the crude enzyme solution was measured by the Bradford method according to the manual of Bio-Rad Protein Assay. The crude enzyme solution was then filtered through a Whatman filter (Whatman), and then the crude enzyme solution in an appropriate protein amount (10 to 15 ml) was applied to three vertically-connected HiTrap Q columns (Amersham Bioscience) using a FPLC device (Amersham Bioscience). After protein component was adsorbed using HiTrap Q, unadsorbed fractions were washed out using buffer-2 having a volume 3 to 5 fold greater than the bed volume. Then, the adsorbed protein component was eluted using an eluate having a volume 10 fold greater than the bed volume (150 ml). Here, the eluate was prepared by dissolving KCl with a linear concentration gradient (0 to 0.4 M) into buffer-2. The eluate containing the eluted protein component was apportioned, 5 ml each, into a plurality of test tubes for apportioning. Further, to stabilize ALS protein contained in the eluted protein component, 0.5 ml of buffer-2 containing 20 mM sodium pyruvate had been previously added to each test tube for apportioning.
(§3) ALS activity resulting from the mutant ALS protein contained in the eluted fractions apportioned into each test tube for apportioning was measured as follows. A reaction solution to be used in a measurement reaction was prepared by mixing an eluted fraction to be measured with a solution comprising 20 mM sodium pyruvate, 0.5 mM TPP, 0.5 mM MgCl2, 10 μM FAD and 20 mM potassium phosphate buffer (pH 7.5). One ml of this reaction solution was used. After the eluted fraction to be measured was added, the measurement reaction was performed at 30° C. for 40 to 60 minutes. Then, the reaction was stopped by addition of 0.1 ml of 6N sulfuric acid (or 0.25 N sodium hydroxide).
(§4) After the reaction was stopped, the reaction solution was incubated at 60° C. for 10 minutes, thereby converting acetolactate contained in the reaction solution to acetoin.
(§5) Then, to quantify acetoin contained in the reaction solution, 1 ml of 0.5% (w/v) creatine and 1 ml of 5% (w/v) α-naphthol dissolved in 2.5 N sodium hydroxide was added to the reaction solution, followed by incubation at 37° C. for 10 minutes. Acetoin was then quantified by color comparison of the absorbance (at 525 nm) of the reaction solution, thereby evaluating ALS activity. In addition, since the reaction solution contained a small amount of sodium pyruvate, reaction time 0 was used as control.
(§6) Using the enzyme solution containing the mutant ALS protein, sensitivity of the mutant ALS protein to bispyribac-sodium, chlorsulfuron and imazaquin was examined. […]

[2] = tested on: mutant ALS protein of Sr line; experiment: as above; type: biochemical, Oryza sativa var. Kinmaze; conditions: I50 of the resistant mutant divided by I50 of the wild type
Description: as §1, §2, §3, §4, §5, §6

[3] = target: T2, GST fusion P171H mutant ALS protein (Oryza sativa subsp. japonica, UniProt Q6K2E8, P171H); experiment: Herbicide sensitivity of ALS protein expressed in E. coli (crude enzyme solution), P171H; type: biochemical, rice (Oryza sativa var. Kinmaze); conditions: for RS ratio: P171H mutant vs wild type
T2 construct: an expression vector having the full-length wild type ALS cDNA incorporated into the Eco RI site of pGEX-2T; made in house; host or cells: E. coli JM109, pGEX-2T(ALS P171H mutant); crude supernatant
Description: as §3, §4, §5
E. coli transformed with pGEX-2T(ALS-wild) constructed in Example 3(5), E. coli transformed with pGEX-2T(ALS-W548L mutant) constructed in Example 5, E. coli transformed with pGEX-2T(ALS-S627I mutant) constructed in Example 5, E. coli transformed with pGEX-2T(ALS P171H mutant) constructed in Example 6, E. coli transformed with pGEX-2T(ALS R172S mutant) constructed in Example 6, E. coli transformed with pGEX-2T(ALS P171H, R172S mutant) constructed in Example 7, E. coli transformed with pGEX-2T(ALS-P171H, W548L mutant) constructed in Example 8, E. coli transformed with pGEX-2T(ALS-P171H, S627I mutant) constructed in Example 8, and E. coli transformed with pGEX-2T(ALS-P171H, W548L, S627I mutant) constructed in Example 9 were respectively shake-cultured (pre-culture) at 27° C. in 2 ml of LB liquid medium containing ampicillin. These types of E. coli were respectively cultured in 250 ml of LB liquid medium containing ampicillin using 1 ml of the pre-culture solution. After culturing overnight, 1 mM IPTG was added to the media, and then culturing was performed for a further 3 to 4 hours, so that the expression of GST fusion protein was induced. In addition, the cells were stored at −80° C. after washing.
Preparation and purification of ALS from E. coli were performed by the following method. First, the pellet of the transformant E. coli stored at −80° C. was suspended in ALS extraction buffer (potassium phosphate buffer (pH 7.5) containing 30% glycerol and 0.5 mM MgCl2). Specifically, 2.5 ml of the buffer was added to the pellet obtained from 50 ml of the culture solution. The suspension was subjected to ultrasonication (Heat Systems-Ultrasonics, Sonicator W-225R, micro chip, output control 8, interval of approximately 1 second, twice (40 seconds each)), and subjected to centrifugation at 15000×g, 4° C. for 20 minutes, thereby obtaining the supernatant as a crude enzyme solution.
Herbicide sensitivity of the wild type ALS protein and that of mutant ALS protein were examined using the 9 types of crude enzyme solutions obtained in Example 10. Herbicide sensitivity test was performed according to procedures almost the same as those in Example 2. However, in this example, reaction temperature was 37° C., reaction time was 30 minutes, and 10 mM valine was added to the reaction solution to inhibit ALS activity derived from E. coli. Further, three types of herbicides, bispyribac-sodium, pyrithiobac-sodium, and pyriminobac, were used as PC herbicides; chlorsulfuron was used as a sulfonylurea herbicide; and imazaquin was used as an imidazolinon herbicide. […]

T1 sequence (Q6K2E8 whole entry W548L/S627I, form open): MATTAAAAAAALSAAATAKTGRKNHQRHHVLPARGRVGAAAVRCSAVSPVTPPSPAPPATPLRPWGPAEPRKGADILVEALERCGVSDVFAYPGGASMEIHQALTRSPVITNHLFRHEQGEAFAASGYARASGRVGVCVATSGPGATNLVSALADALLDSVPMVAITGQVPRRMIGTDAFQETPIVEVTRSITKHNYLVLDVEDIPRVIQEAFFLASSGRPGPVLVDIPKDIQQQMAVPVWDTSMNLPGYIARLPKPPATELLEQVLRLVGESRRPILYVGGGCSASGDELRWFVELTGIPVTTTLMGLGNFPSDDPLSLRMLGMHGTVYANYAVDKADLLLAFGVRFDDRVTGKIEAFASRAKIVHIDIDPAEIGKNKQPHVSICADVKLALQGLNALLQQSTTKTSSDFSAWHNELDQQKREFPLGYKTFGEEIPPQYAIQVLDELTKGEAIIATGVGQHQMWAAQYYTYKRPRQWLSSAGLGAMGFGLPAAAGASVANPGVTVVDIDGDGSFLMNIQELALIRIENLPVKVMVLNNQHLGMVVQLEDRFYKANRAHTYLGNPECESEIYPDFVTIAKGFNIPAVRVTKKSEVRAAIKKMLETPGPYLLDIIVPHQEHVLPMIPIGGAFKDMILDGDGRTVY
T2 sequence (Q6K2E8 44-644 P171H): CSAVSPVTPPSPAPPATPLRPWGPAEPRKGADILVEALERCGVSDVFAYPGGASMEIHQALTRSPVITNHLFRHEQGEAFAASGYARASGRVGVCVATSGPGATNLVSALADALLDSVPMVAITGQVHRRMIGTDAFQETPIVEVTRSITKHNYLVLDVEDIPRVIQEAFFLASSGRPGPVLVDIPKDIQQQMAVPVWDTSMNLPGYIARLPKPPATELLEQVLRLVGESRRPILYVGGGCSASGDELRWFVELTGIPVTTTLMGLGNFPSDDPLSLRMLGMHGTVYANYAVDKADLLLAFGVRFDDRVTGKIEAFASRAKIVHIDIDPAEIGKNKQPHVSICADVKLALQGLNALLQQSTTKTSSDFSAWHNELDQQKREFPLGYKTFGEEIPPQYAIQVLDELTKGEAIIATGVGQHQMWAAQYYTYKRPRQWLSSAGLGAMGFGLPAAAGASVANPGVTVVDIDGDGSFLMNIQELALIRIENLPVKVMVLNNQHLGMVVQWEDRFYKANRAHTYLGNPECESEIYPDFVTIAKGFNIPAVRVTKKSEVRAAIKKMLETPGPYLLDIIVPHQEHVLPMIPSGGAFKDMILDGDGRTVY

## COc1cc(OC)nc(Oc2cccc(Oc3nc(OC)cc(OC)n3)c2C(=O)O)n1 [bispyribac-sodium]
[1]
  IC50: 421 nM
[2]
  RS ratio Sr: 74.8
[3]
  IC50: 55 nM
  RS ratio: 8.7

## COc1nc(C)nc(NC(=O)NS(=O)(=O)c2ccccc2Cl)n1 [chlorsulfuron]
[1]
  IC50: 92.8 nM
[2]
  RS ratio Sr: 5.36
[3]
  IC50: 1100 nM
  RS ratio: 85

## CC(C)C1(C)N=C(c2nc3ccccc3cc2C(=O)O)NC1=O (stereo not drawn) [imazaquin]
[1]
  IC50: 16700 nM
[2]
  RS ratio Sr: 11.3
[3]
  IC50: 3400 nM
  RS ratio: 1.5
